Biological target: T1, MeCP2-TBL1 interaction (MeCP2-SmBiT / TBL1-LgBiT) (Mus musculus, UniProt Q9QXE7)
T1 construct: expressed in transfected cells; crude lysate used as a cell-free assay
T1 sequence (Q9QXE7 166-527): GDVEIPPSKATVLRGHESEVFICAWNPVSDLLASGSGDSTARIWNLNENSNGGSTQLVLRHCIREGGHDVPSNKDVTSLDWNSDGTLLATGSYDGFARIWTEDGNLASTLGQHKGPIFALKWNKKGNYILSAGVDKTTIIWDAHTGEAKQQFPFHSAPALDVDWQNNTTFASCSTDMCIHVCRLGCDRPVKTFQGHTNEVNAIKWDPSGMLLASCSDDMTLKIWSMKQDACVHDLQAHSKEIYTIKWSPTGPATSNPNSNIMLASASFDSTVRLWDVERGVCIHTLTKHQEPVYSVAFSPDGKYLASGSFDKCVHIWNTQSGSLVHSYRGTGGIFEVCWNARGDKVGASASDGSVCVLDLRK
Experiment: MeCP2-TBL1 NanoLuc luciferase complementation assay (cell-free, extracts of transfected HEK293 cells);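 further: each compound tested at 20 µM final concentration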
Type: binding, human
Summary of the method: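 Cell-free split NanoLuc: lysate of HEK293 cells co-expressing the MeCP2 C-terminal half-SmBiT and TBL1 WD domain-LgBiT, mixed 1:1 with furimazine. After 30 min at room temperature, luminescence was plate-median normalized.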

[1] = primary screen of the Asinex library, sheet "Sargen output Asinex library", one well per compound, Batch Ref. 1
[2] = primary screen of the Asinex library, sheet "Sargen output Asinex library", one well per compound
[3] = primary screen of Asinex library, single well per compound

## COc1ccccc1-c1ccc(CN2C[C@@H](c3ccccc3F)[C@@]3(CCCC(=O)N3)C2)cc1 [BDF_20367643]
[1]
  Inhibition percent: 18.11%

## COc1ccc(S[C@@H]2CCO[C@@H](CCNC(=O)c3cc(OC)nc(OC)n3)C2)cc1 [BDF_22929100]
[2]
  Inhibition percent: -1.50%

## CC(=O)N1CCC(Cc2cc(-c3ccccc3)no2)(C(=O)N2CCC(C(C)(C)C)CC2)C1 (stereo not shown) [BDF_23076577]
[1]
  Inhibition percent: 2.56%

## CC(=O)N1CCC(Cc2cc(-c3ccccc3)no2)(C(=O)Nc2ccccc2OC(C)C)C1 (stereo not shown) [BDF_23076638]
[1]
  Inhibition percent: 1.76%

## Cn1nc(C(F)(F)F)cc1C(=O)NCC[C@@H]1C[C@@H](S(=O)(=O)c2ccccc2)CCO1 [BDF_23100510]
[3]
  Inhibition percent: 0.85

## CC(=O)N[C@@H]1CCO[C@H](c2ccc(NC(=O)C(c3ccccc3)c3ccccc3)cc2)C1 [BDF_23111075]
[1]
  Inhibition percent: 0.91%

## CCc1nnsc1C(=O)N(CC)[C@H]1CCO[C@@H](c2cccc(-c3cncnc3)c2)C1 [BDF_23117916]
[2]
  Inhibition percent: -3.67%

## COCCNC(=O)c1sc2ncccc2c1C1CCN(Cc2ccc3ncccc3c2)C1 (stereo not shown) [BDF_24020930]
[1]
  Inhibition percent: -0.43%

## CCN(CC)C(=O)CN1CCOC(c2c(C(=O)N3CCOCC3)sc3ncccc23)C1 (stereo not shown) [BDF_24025276]
[1]
  Inhibition percent: -4.29%

## CCN(Cc1cnn(-c2ccc(C)cc2)c1)[C@@H]1CCO[C@H](c2ccc(C(=O)N(C)C)cc2)C1 [BDF_24511039]
[2]
  Inhibition percent: -0.31%

## Cc1ccccc1OCCC(=O)N1CCC(c2nc(N(C)C)ncc2-c2cccc(F)c2)C1 (stereo not shown) [BDF_24539058]
[2]
  Inhibition percent: 9.04%

## Cc1cc(CCCC(=O)N2CCC(c3nc(N(C)C)ncc3-c3cncnc3)C2)ccc1F (stereo not shown) [BDF_24540183]
[1]
  Inhibition percent: 0.11%

## NC(=O)C1(Cc2cc(C3CCCCC3)no2)CCN(C(=O)CN2CCCCCC2=O)C1 (stereo not shown) [BDF_24693170]
[1]
  Inhibition percent: -2.18%

## Cc1nc(C2CCN(C(=O)C3CCCCC3)C2)nc2c1CC(=O)N2CCCc1ccccc1 (stereo not shown) [BDF_25113060]
[3]
  Inhibition percent: -1.14

## Cc1nnc(Nc2cccc(C3CN(C(=O)Cn4c(C)cc5ccccc54)CCO3)n2)s1 (stereo not shown) [BDF_25244494]
[1]
  Inhibition percent: -1.26%

## Cc1cc(Nc2cccc(C3CN(C(=O)Cc4ccc5c(c4)CCCO5)CCO3)n2)nn1C (stereo not shown) [BDF_25246163]
[1]
  Inhibition percent: -0.41%

## Cc1ccccc1Cc1cccc(C2CN(C(=O)c3nccc4ccccc34)CCO2)n1 (stereo not shown) [BDF_25249064]
[1]
  Inhibition percent: 6.97%

## O=C(CCc1[nH]nc2c1CCCC2)N1CCOC(c2cccc(Cc3ccc(F)cc3)n2)C1 (stereo not shown) [BDF_25251125]
[1]
  Inhibition percent: -1.98%

## Cc1cc(C)nc(NCCC(=O)N2CCOC(c3cccc(Cc4ccccc4C)n3)C2)n1 (stereo not shown) [BDF_25252602]
[2]
  Inhibition percent: -1.37%

## NC(=O)c1cccc(-c2cccc(C3CN(C(=O)CCc4cccc(Cl)c4)CCO3)n2)c1 (stereo not shown) [BDF_25272769]
[1]
  Inhibition percent: 7.95%

## CNC(=O)c1ccc(-c2cccc(C3CN(CC(=O)NCc4ccccn4)CCO3)n2)cn1 (stereo not shown) [BDF_25324043]
[2]
  Inhibition percent: 1.99%

## Cc1ccc(=O)n(CC(=O)N2CCOC3(CC=CCN(CCc4ccccc4)C3=O)C2)n1 (stereo not shown) [BDF_25862113]
[3]
  Inhibition percent: 3.93

## O=C(CC1CCCCC1)N1CCOC(c2nccnc2-c2cccc(C(F)(F)F)c2)C1 (stereo not shown) [BDF_25939482]
[1]
  Inhibition percent: 0.68%

## Cc1cc(-c2ccc(N)nc2)cc(C2CN(C(=O)CCc3cccc(Cl)c3)CCO2)n1 (stereo not shown) [BDF_26216758]
[1]
  Inhibition percent: 8.38%

## Cc1cc(Cc2cccc(F)c2)cc(C2CN(C(=O)Cc3ccc(F)cc3)CCO2)n1 (stereo not shown) [BDF_26219393]
[1]
  Inhibition percent: -0.80%

## Cc1cc(Cc2ccccc2F)cc(C2CN(C(=O)Cn3cnc4ccccc43)CCO2)n1 (stereo not shown) [BDF_26219772]
[1]
  Inhibition percent: 3.08%

## Cc1nc(C2(O)CCCN(Cc3ccncc3)CC2)sc1CCOc1ccccc1 (stereo not shown) [BDF_26909339]
[1]
  Inhibition percent: -3.76%

## FC(F)(F)c1ccccc1Cc1cccc(C2CN(Cc3cccnc3)CCO2)n1 (stereo not shown) [BDF_27574784]
[1]
  Inhibition percent: 32.27%

## CC(=O)Nc1ccc(C(=O)N2CCOC(c3cccc(Cc4ccccc4Cl)n3)C2)cc1 (stereo not shown) [BDF_27578760]
[1]
  Inhibition percent: 0.59%

## CC(=O)Nc1cccc([C@@H]2CN(CCc3ccc(F)cc3)C[C@]23CCCCC(=O)N3)c1 [BDF_30280717]
[1]
  Inhibition percent: -0.37%

## CC(=O)N[C@@]12CCN(S(=O)(=O)Cc3cccc(Cl)c3)C[C@@H]1[C@@H](c1ccccc1)N(C(C)=O)C2 [BDF_30361318]
[3]
  Inhibition percent: -5.79

## Cc1cccc(CN(CCc2c[nH]c3ccccc23)[C@@H]2CC[C@@H](NCc3ccccc3)[C@H]2O)c1 [BDF_33953574]
[2]
  Inhibition percent: 3.88%

## COCCOc1cccc(CN2[C@H](Cc3ccccc3F)C[C@@H]3NC(=O)CCCC[C@H]32)c1 [BDG_23917768]
[3]
  Inhibition percent: -0.22

## COc1ccccc1-c1ccc(CN2[C@@H](c3ccccc3)C[C@@H]3NC(=O)CCC[C@H]32)cc1 [BDG_23930473]
[1]
  Inhibition percent: 6.28%

## Cn1c(CCC(=O)N2CC[C@@H]3[C@H]2CCCC(=O)N3Cc2ccc(F)cc2)nc2ccccc21 [BDG_23960040]
[1]
  Inhibition percent: 1.86%

## CN(CCC(=O)N1[C@H](Cc2ccccc2)C[C@]2(C)NC(=O)CCC[C@H]12)Cc1ccccn1 [BDG_24639113]
[2]
  Inhibition percent: -2.30%

## Cc1cc(C)nc(NCCCC(=O)N2[C@H](Cc3ccccc3)C[C@]3(C)NC(=O)CCC[C@H]23)n1 [BDG_24639132]
[3]
  Inhibition percent: -1.41

## O=C1CCC[C@H]2[C@@H](C[C@@H](c3cccc(C(F)(F)F)c3)N2C(=O)CCc2ccccc2)N1 [BDG_27570843]
[1]
  Inhibition percent: 0.77%

## CC(=O)N[C@@]12CCN(CCOc3ccc(F)cc3)C[C@@H]1[C@@H](c1ccccc1)N(C(C)=O)C2 [BDG_30283198]
[2]
  Inhibition percent: -0.86%

## C[C@]12C[C@@H]3N[C@H]1CCC[C@H]2N(Cc1ccccc1C(=O)O)[C@H]3Cc1ccccc1 [BDG_33391350]
[1]
  Inhibition percent: -0.20%

## C[C@]12C[C@@H]3N[C@H]1CCC[C@H]2N(C(=O)COc1ccccc1F)[C@H]3Cc1ccccc1 [BDG_33391690]
[1]
  Inhibition percent: 4.10%

## C[C@@]12C[C@H]3[C@@H](Cc4ccccc4)N[C@@H]1CCC[C@@H]2N3C(=O)c1cccc(Cc2ccccc2F)n1 [BDG_33393042]
[3]
  Inhibition percent: -2.99

## C[C@]12C[C@@H]3N[C@H]1CCC[C@H]2N(C(=O)c1cccc(Cc2ccccc2F)n1)[C@H]3Cc1ccccc1 [BDG_33393043]
[2]
  Inhibition percent: 5.29%

## C[C@@]12C[C@H]3[C@H](Cc4ccccc4)N[C@@H]1CCCC[C@@H]2N3C(=O)CNC(=O)c1ccccc1 [BDG_33503003]
[1]
  Inhibition percent: 1.11%

## CC(=O)N1[C@H](Cc2ccccc2)[C@@H]2C[C@@]3(C)[C@H](CCC[C@@H]13)N2C(=O)CNC(=O)c1ccccc1 [BDG_33503016]
[1]
  Inhibition percent: 3.61%

## COc1ccccc1OCC(=O)N1[C@@H](Cc2ccccc2)[C@@H]2C[C@@]3(C)[C@H](CCC[C@@H]13)N2 [BDG_33503207]
[1]
  Inhibition percent: 2.88%

## COc1cccc(-c2cc(C(=O)N3[C@H]4CCC[C@H]5N(C)[C@@H](Cc6ccccc6)[C@@H]3C[C@@]45C)[nH]n2)c1 [BDG_33504530]
[1]
  Inhibition percent: 8.58%

## C[C@@]12C[C@H]3[C@@H](Cc4ccccc4)N[C@@H]1CCCC[C@@H]2N3C(=O)CNC(=O)c1cncc(O)c1 [BDG_33504652]
[1]
  Inhibition percent: 0.85%

## CCOc1ccc(-c2cc(C(=O)N3[C@@H](Cc4ccccc4)[C@@H]4C[C@@]5(C)[C@H](CCC[C@@H]35)N4)[nH]n2)cc1 [BDG_33504765]
[1]
  Inhibition percent: 12.86%

From PMC9995496, “A screen for MeCP2-TBL1 interaction inhibitors using a luminescence-based assay” (Scientific Reports, 2023)
